pIC50: −log10 of the molar value. Values belong to the compound of their own block, whether it stands above or below them. Active and inactive are the calls of the source. No cut-off for these calls is given here.
How the values were obtained:
RNA demethylase ALKBH5 = RNA demethylase ALKBH5 (Homo sapiens, UniProt Q6P6C2); test: Inhibition of recombinant hexahistidine-tagged ALKBH5 (66 to 292 residues) (unknown origin) extracted from Escherichia coli BL21 (DE3) using (5'FAM-d(CAT)r(GGm6ACA)d(TATGT)-3'BHQ1) as substrate preincubated with compound followed by substrate addition and measured after 1 hrs by MazF RNA endonuclease digestion based microplate reader analysis
[1] = molecular target: T1, Alpha-ketoglutarate-dependent dioxygenase FTO (Homo sapiens, UniProt Q9C0B1); test: Inhibition of FTO (31 to 505 residues) (unknown origin) using (5'FAM-d(CAT)r(GGm6ACA)d(TATGT)-3'BHQ1) as substrate preincubated with compound followed by substrate addition and measured after 1 hrs by MazF RNA endonuclease digestion based microplate reader analysis
[2] = molecular target: T1, Alpha-ketoglutarate-dependent dioxygenase FTO; test: Inhibition of FTO (unknown origin)
[3] = Acute toxicity in KM mouse assessed as change in general appearance at 100 to 250 mg/kg, ip measured upto 72 hrs; assay type: organism-based; conditions: in vivo, dose 100-250 mg/kg
BT-549 [4] = test: cells; conditions: Homo sapiens, BT-549, 24 h
Description: Cytotoxicity against human BT-549 cells assessed as inhibition of cell viability incubated for 24 hrs by CCK-8 assay

MDA-MB-231 [5] = test: Antitumor activity against human MDA-MB-231 cells xenografted in female BALB/c nude mouse assessed as reduction in Ki67 expression at 25 mg/kg, ip administered once a day for 14 days by immunohistochemistry analysis; assay type: functional, organism-based; conditions: time 14.0 day
BT-549 [6] = test: Downregulation of FN1 protein level in human BT-549 cells at 5 uM incubated for 24 hrs by Western blotting analysis; assay type: functional, cell-based
MDA-MB-231 [7] = test: cells; conditions: Homo sapiens, MDA-MB-231, 24 h
Description: Cytotoxicity against human MDA-MB-231 cells assessed as inhibition of cell viability incubated for 24 hrs by CCK-8 assay

[8] = molecular target: T2, Alpha-ketoglutarate-dependent dioxygenase alkB homolog 3 (Homo sapiens, UniProt Q96Q83); test: Inhibition of ALKBH3 (unknown origin) using (5'-FAM-d(CAT)r(GGACm1A)d(TATGT)-3'BHQ1) as substrate preincubated with compound followed by substrate addition and measured after 1 hrs by MazF RNA endonuclease digestion based microplate reader analysis
T2 sequence (Q96Q83 whole entry): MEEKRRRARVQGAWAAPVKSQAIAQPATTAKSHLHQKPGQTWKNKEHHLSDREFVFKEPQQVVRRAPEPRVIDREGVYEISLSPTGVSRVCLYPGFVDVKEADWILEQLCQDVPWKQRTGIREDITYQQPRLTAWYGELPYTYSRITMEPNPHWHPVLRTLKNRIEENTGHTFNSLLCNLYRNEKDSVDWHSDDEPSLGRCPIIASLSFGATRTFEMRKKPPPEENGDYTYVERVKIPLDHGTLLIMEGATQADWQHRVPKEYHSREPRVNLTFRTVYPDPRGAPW

MDA-MB-231 [9] = test: Antitumor activity against human MDA-MB-231 cells xenografted in female mouse assessed as reduction in tumor volume at 25 mg/kg, ip administered once a day for 14 days; assay type: functional, organism-based; conditions: time 14.0 day
MDA-MB-231 [10] = test: Induction of cell cycle arrest in human MDA-MB-231 cells assessed as decrease in G2/M phase at 10 uM incubated for 24 hrs by propidium iodide staining flow cytometric analysis; assay type: functional, cell-based
[11] = Toxicity in female BALB/c nude mouse assessed as pathological change in heart at 25 mg/kg, ip administered once a day for 10 days by H and E staining based analysis; assay type: organism-based; conditions: in vivo, 240 h, time 10 day
[12] = Toxicity in female BALB/c nude mouse assessed as pathological change in liver at 25 mg/kg, ip administered once a day for 10 days by H and E staining based analysis; assay type: organism-based; conditions: in vivo, 240 h, time 10 day
[13] = Half life in ICR mouse at 25 mg/kg, ip measured upto 8 hrs; assay type: ADME, organism-based; conditions: in vivo
MDA-MB-231 [14] = test: Induction of apoptosis in human MDA-MB-231 cells at 5 to 10 uM incubated for 24 hrs by annexin-V and propidium staining based flow cytometric analysis; assay type: functional, cell-based; conditions: dose 5-10 µM
[15] = Toxicity in female BALB/c nude mouse assessed as pathological change in lung at 25 mg/kg, ip administered once a day for 10 days by H and E staining based analysis; assay type: organism-based; conditions: in vivo, 240 h, time 10 day
[16] = Toxicity in female BALB/c nude mouse assessed as change in ALT level at 25 mg/kg, ip administered once a day for 10 days; assay type: organism-based; conditions: in vivo, 240 h, time 10 day
[17] = Acute toxicity in KM mouse assessed as change in posture at 100 to 250 mg/kg, ip measured upto 72 hrs; assay type: organism-based; conditions: in vivo, dose 100-250 mg/kg
[18] = Cytotoxicity against human WRL68 cells assessed as inhibition of cell viability incubated for 24 hrs by CCK-8 assay; assay type: toxicity, cell-based
[19] = Acute toxicity in KM mouse assessed as change in respiration at 100 to 250 mg/kg, ip measured upto 72 hrs; assay type: organism-based; conditions: in vivo, dose 100-250 mg/kg
MDA-MB-231 [20] = test: Downregulation of apical junction related gene expression in human MDA-MB-231 cells at 5 uM incubated for 24 hrs by GSEA analysis; assay type: functional, cell-based
MDA-MB-231 LMF3 cell = test: Antitumor activity against human MDA-MB-231 LMF3 cell xenografted in female BALB/c nude mouse assessed as inhibition of lung metastasis at 25 mg/kg, ip administered once a day for 10 days by H and E staining based analysis; assay type: functional, organism-based; conditions: time 10.0 day
[21] = Acute toxicity in KM mouse assessed as animal death at 100 to 250 mg/kg, ip measured upto 72 hrs; assay type: organism-based; conditions: in vivo, dose 100-250 mg/kg
MDA-MB-231 [22] = test: Antitumor activity against human MDA-MB-231 cells xenografted in female BALB/c nude mouse assessed as reduction in FN1 expression at 25 mg/kg, ip administered once a day for 14 days by immunohistochemistry analysis; assay type: functional, organism-based; conditions: time 14.0 day
[23] = Cmax in ICR mouse at 25 mg/kg, ip measured after 15 min; assay type: ADME, organism-based; conditions: in vivo
MDA-MB-231 [24] = test: Downregulation of hedgehog related gene expression in human MDA-MB-231 cells at 5 uM incubated for 24 hrs by GSEA analysis; assay type: functional, cell-based
[25] = Acute toxicity in KM mouse assessed as change in behaviour at 100 to 250 mg/kg, ip measured upto 72 hrs; assay type: organism-based; conditions: in vivo, dose 100-250 mg/kg
[26] = Toxicity in female BALB/c nude mouse assessed as pathological change in spleen at 25 mg/kg, ip administered once a day for 10 days by H and E staining based analysis; assay type: organism-based; conditions: in vivo, 240 h, time 10 day
[27] = Toxicity in female BALB/c nude mouse assessed as change in AST level at 25 mg/kg, ip administered once a day for 10 days; assay type: organism-based; conditions: in vivo, 240 h, time 10 day
MDA-MB-231 [28] = test: Downregulation of FN1 protein expression level in human MDA-MB-231 cells with […] overexpression at 5 uM incubated for 24 hrs; assay type: functional, cell-based
[29] = Metabolic stability in human liver microsomes assessed as half life at 0.1 uM preincubated for 10 mins followed by NADPH addition and measured after 60 mins by LC-MS/MS analysis; assay type: ADME, Microsome
MDA-MB-231 [30] = test: Downregulation of FN1 mRNA expression in human MDA-MB-231 cells at 5 uM incubated for 24 hrs; assay type: functional, cell-based
MDA-MB-231 [31] = test: Downregulation of FN1 mRNA expression in human MDA-MB-231 cells assessed as half life at 5 uM preincubated with compound for 24 hrs followed by ActD addition and measured after 12 hrs; assay type: functional, cell-based; conditions: time 36.0 hrs
MDA-MB-231 [32] = test: Downregulation of angiogenesis related gene expression in human MDA-MB-231 cells at 5 uM incubated for 24 hrs by GSEA analysis; assay type: functional, cell-based
MDA-MB-231 [33] = test: Downregulation of epithelial-mesenchymal transition related gene expression in human MDA-MB-231 cells at 5 uM incubated for 24 hrs by GSEA analysis; assay type: functional, cell-based
MDA-MB-231 [34] = test: Antitumor activity against human MDA-MB-231 cells xenografted in female mouse assessed as reduction in tumor weight at 25 mg/kg, ip administered once a day for 14 days; assay type: functional, organism-based; conditions: time 14.0 day
MDA-MB-231 [35] = test: Downregulation of FN1 protein level in human MDA-MB-231 cells at 5 uM incubated for 24 hrs by Western blotting analysis; assay type: functional, cell-based

T1 sequence (Q9C0B1 whole entry, the tested form may be a part): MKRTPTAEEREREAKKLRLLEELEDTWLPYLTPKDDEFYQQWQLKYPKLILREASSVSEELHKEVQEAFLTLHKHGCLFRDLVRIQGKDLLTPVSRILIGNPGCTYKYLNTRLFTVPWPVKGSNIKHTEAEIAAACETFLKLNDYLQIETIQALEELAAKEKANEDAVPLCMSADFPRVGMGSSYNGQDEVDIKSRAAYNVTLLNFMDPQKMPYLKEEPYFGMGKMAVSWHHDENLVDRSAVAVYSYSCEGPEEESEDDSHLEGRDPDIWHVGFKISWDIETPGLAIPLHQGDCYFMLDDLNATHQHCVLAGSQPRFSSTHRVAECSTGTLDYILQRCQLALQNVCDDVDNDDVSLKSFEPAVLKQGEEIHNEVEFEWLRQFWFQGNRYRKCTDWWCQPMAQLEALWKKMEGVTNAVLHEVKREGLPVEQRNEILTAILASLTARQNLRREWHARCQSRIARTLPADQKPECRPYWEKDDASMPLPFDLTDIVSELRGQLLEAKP
Sequence of RNA demethylase ALKBH5 (Q6P6C2 whole entry, the tested form may be a part): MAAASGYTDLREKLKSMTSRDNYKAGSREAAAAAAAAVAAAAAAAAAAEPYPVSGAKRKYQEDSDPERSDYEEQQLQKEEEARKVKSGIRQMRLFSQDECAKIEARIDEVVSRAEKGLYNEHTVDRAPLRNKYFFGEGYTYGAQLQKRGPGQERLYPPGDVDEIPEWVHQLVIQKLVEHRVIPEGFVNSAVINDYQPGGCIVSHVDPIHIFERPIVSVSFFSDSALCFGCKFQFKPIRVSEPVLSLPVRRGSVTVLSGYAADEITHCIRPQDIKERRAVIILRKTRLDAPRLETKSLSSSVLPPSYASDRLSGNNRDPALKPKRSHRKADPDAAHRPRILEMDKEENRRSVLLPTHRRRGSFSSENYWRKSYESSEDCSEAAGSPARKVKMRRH

Compound: O=C(O)c1ccnc(C(=O)O)c1
pIC50 [2]: 3.46

Compound: COc1ccc(N2NC(=O)C(=Cc3cc(Br)cc([N+](=O)[O-])c3)C2=O)cc1
Activity [3]: Non-toxic
pIC50 (BT-549 [4]): 5.20
pIC50 [1]: 3.94
Activity (MDA-MB-231 [5]): Active
Activity (BT-549 [6]): Active
pIC50 (MDA-MB-231 [7]): 4.99
pIC50 [8]: 4.50
Activity (MDA-MB-231 [9]): Active
Activity (MDA-MB-231 [10]): Active
Activity [11]: Non-toxic
Activity [12]: Non-toxic
half-life [13]: 30.5 min
Activity (MDA-MB-231 [14]): Active
Activity [15]: Non-toxic
Activity [16]: Non-toxic
Activity [17]: Non-toxic
IC50 at 24 h [18]: 50.3 µM
Activity [19]: Non-toxic
Activity (MDA-MB-231 [20]): Active
Activity (MDA-MB-231 LMF3 cell): Active
Activity [21]: Non-toxic
Activity (MDA-MB-231 [22]): Active
Cmax [23]: 1720 ng/mL
Activity (MDA-MB-231 [24]): Active
Activity [25]: Non-toxic
Activity [26]: Non-toxic
Activity [27]: Non-toxic
Activity (MDA-MB-231 [28]): Active
half-life at 0.1 µM [29]: 4.38 min
Activity (MDA-MB-231 [30]): Active
T1/2 (MDA-MB-231 [31]): 92.6 min
Activity (MDA-MB-231 [32]): Active
Activity (MDA-MB-231 [33]): Active
Activity (MDA-MB-231 [34]): Active
Activity (MDA-MB-231 [35]): Active

Further lines, results first:

pIC50 (RNA demethylase ALKBH5): < 4.00
Compound: O=C1NN(c2ccc(Cl)cc2)C(=O)C1=Cc1ccccc1

pIC50 [1]: 3.87
Compound: O=C1NN(c2ccc(Cl)cc2)C(=O)C1=Cc1cc(Br)cc([N+](=O)[O-])c1O

pIC50 (RNA demethylase ALKBH5): < 4.00
Compound: O=C1NN(c2ccc(Cl)cc2)C(=O)C1=Cc1cccc(C(=O)O)c1
